From US11479536B1 (King Abdulaziz University, priority 2022, dated 2022) come the findings set out here.

This experiment relates to HL60 cell line. The experiment can be described thus: Cell viability assay of HL60 cell line (CellTiter-Blue). In kind it is cell-based, human. As to conditions: HL60, 48 h incubation; read-out: IC50 against leukemia cell lines HL60. Here is the method: HL60, K562, MV4-11 and NB4 were purchased from CLS Cell Line Service GmbH (Eppelheim, Germany). All cell lines were cultured in RPMI-1640 medium supplemented with 10% fetal bovine serum (FBS) (Thermo Fisher Scientific) and 0.1% ciprofloxacin (2.5 mg/ml; Cipla Limited; Mumbai, India), and were maintained at 37° C. in the presence of 21% O2 and 5% CO2.
Cell viability was determined using the CellTiter®-Blue Cell Viability Assay kit (Promega, Madison, Wis., USA). Approximately 10^4 cells were counted and plated in a 96-well plate in the presence of test compounds ranging from 0.01 to 10 or 20 μM in triplicate and were incubated for 48 h at 37° C. in a humidified incubator. After the incubation period was complete, 20 μL of CellTiter®-Blue Cell Viability Assay reagent was added to each well and incubated for additional 2 h for the development of florescence. Florescence was measured at Ex/Em 540/590 on SpectraMax® i3 Multi-Mode microplate reader (Molecular Devices, LLC; San Jose, Calif., USA) and plotted against drug concentration to determine the IC50 of the test compounds. The IC50 was obtained by non-linear regression model using GraphPad Prism 6.07 (GraphPad Software, Inc, USA).
In general terms: The colour change of resazurin is a common sign of viable cells or microbes.

As to `COc1cccc(C(=O)Nc2ccc(CC(=O)NCc3ccccc3)cc2)c1` [MAK-1, N-(4-(2-(benzylamino)-2-oxoethyl)phenyl)-3-methoxybenzamide], the IC50 (in general, the point on the concentration scale where inhibition reaches its midpoint) is 3.27 ± 0.15 µM.
